Source: patent US8389679B2, “Targeted antimicrobial moieties” (priority 2009, dated 2013)
Entries after “also recorded” stand apart in the source; their conditions may differ.

The substances below were run on target microorganisms (assay: Screen of synthesized peptides for binding to target microorganisms (targeting peptides, Tables 2 and 3)). Conditions: microorganism(s) the targeting peptide was identified as binding to (Table 3).
Method: Once noted, these peptides were batch synthesized on a multiplex peptide synthesizer, yielding 5-10 mg of each peptide that could readily be screened for biological activity (e.g., binding activity and/or antimicrobial activity.
Other suitable targeting peptides include the peptides that have been identified as binding to particular target organisms as shown in Table 3 and/or Table 4.

Row | Substance | Target(s)
1 | 1T-52 (DEYPAKLPLSDKGATEPRRH; synthetic novel tartgeting peptide IT-52) | S. aureus; also recorded: C. xerosis; also recorded: P. aeruginosa
2 | 1T-53 (SDILAEMFEKGELQTLVKDAAAKANA; synthetic novel tartgeting peptide IT-53) | P. aeruginosa
3 | 1T-54 (RWVSCNPSWRIQ; synthetic novel tartgeting peptide IT-54) | S. epidermidis; also recorded: C. xerosis; also recorded: C. striatum; also recorded: P. aeruginosa
4 | 1T-55 (NHKTLKEWKAKWGPEAVESWATLLG; synthetic novel tartgeting peptide IT-55) | C. xerosis; also recorded: P. aeruginosa
5 | 1T-56 (LALIGAGIWMIRKG; synthetic novel tartgeting peptide IT-56) | C. xerosis; also recorded: P. aeruginosa
6 | 1T-57 (RLEYRRLETQVEENPESGRRPMRG; synthetic novel tartgeting peptide IT-57) | P. aeruginosa
7 | 1T-58 (CDDLHALERAGKLDALLSA; synthetic novel tartgeting peptide IT-58) | P. aeruginosa
8 | 1T-59 (AVGNNLGKDNDSGHRGKKHRKHKHR; synthetic novel tartgeting peptide IT-59) | S. aureus; also recorded: S. epidermidis; also recorded: P. aeruginosa
9 | 1T-60 (YLTSLGLDAAEQAQGLLTILKG; synthetic novel tartgeting peptide IT-60) | S. aureus; also recorded: S. epidermidis; also recorded: C. jeikeium; also recorded: C. striatum; also recorded: P. aeruginosa
10 | 1T-61 (HATLLPAVREAISRQLLPALVPRG; synthetic novel tartgeting peptide IT-61) | P. aeruginosa
11 | 1T-62 (GCKGCAQRDPCAEPEPYFRLR; synthetic novel tartgeting peptide IT-62) | S. epidermidis; also recorded: P. aeruginosa
12 | 1T-63 (EPLILKELVRNLFLFCYARALR; synthetic novel tartgeting peptide IT-63) | S. aureus; also recorded: S. epidermidis; also recorded: C. jeikeium; also recorded: C. xerosis; also recorded: C. striatum; also recorded: P. aeruginosa
13 | 1T-64 (QTVHHIHMHVLGQRQMHWPPG; synthetic novel tartgeting peptide IT-64) | S. aureus; also recorded: S. epidermidis; also recorded: C. jeikeium; also recorded: C. xerosis; also recorded: C. striatum; also recorded: P. aeruginosa
14 | 1T-65 (HARAAVGVAELPRGAAVEVELIAAVRP; synthetic novel tartgeting peptide IT-65) | S. mutans; also recorded: S. aureus; also recorded: S. epidermidis; also recorded: C. jeikeium; also recorded: C. xerosis; also recorded: C. striatum; also recorded: P. aeruginosa
15 | 1T-66 (DTDCLSRAYAQRIDELDKQYAGIDKPL; synthetic novel tartgeting peptide IT-66) | S. mutans; also recorded: S. aureus; also recorded: S. epidermidis; also recorded: C. jeikeium; also recorded: C. xerosis; also recorded: C. striatum; also recorded: P. aeruginosa
16 | 1T-67 (GQRQRLTCGRVSGCSEGPSREAAR; synthetic novel tartgeting peptide IT-67) | S. aureus; also recorded: S. epidermidis; also recorded: C. jeikeium; also recorded: C. xerosis; also recorded: C. striatum; also recorded: P. aeruginosa
17 | 1T-68 (GGTKEIVYQRG; synthetic novel tartgeting peptide IT-68) | S. mutans; also recorded: S. aureus; also recorded: C. jeikeium; also recorded: C. xerosis; also recorded: C. striatum; also recorded: P. aeruginosa
18 | 1T-69 (ILSQEADRKKLF; synthetic novel tartgeting peptide IT-69) | S. mutans; also recorded: P. aeruginosa
19 | 1T-70 (NRQAQGERAHGEQQG; synthetic novel tartgeting peptide IT-70) | S. aureus; also recorded: C. jeikeium; also recorded: P. aeruginosa
20 | 1T-71 (KIDTNQWPPNKEG; synthetic novel tartgeting peptide IT-71) | P. aeruginosa
21 | 1T-72 (EPTDGVACKER; synthetic novel tartgeting peptide IT-72) | P. aeruginosa

Row | Substance | Target(s)
22 | 1T-73 (GWWEELLHETILSKFKITKALELPIQL; synthetic novel tartgeting peptide IT-73) | Streptococcus; also recorded: pneumoniae
23 | 1T-74 (DIDWGRKISCAAGVAYGAIDGCATTV; synthetic novel tartgeting peptide IT-74) | S. pneumoniae
24 | 1T-75 (GVARGLQLGIKTRTQWGAATGAA; synthetic novel tartgeting peptide IT-75) | S. pneumoniae
25 | 1T-76 (EMRLSKFFRDFILWRKK; synthetic novel tartgeting peptide IT-76) | S. pneumoniae
26 | 1T-77 (EMRISRIILDFLFLRKK; synthetic novel tartgeting peptide IT-77) | S. pneumoniae
27 | 1T-78 (FFKTIFVLILGALGVAAGLYIEKNYIDK; synthetic novel tartgeting peptide IT-78) | S. pneumoniae
28 | 1T-79 (FGTPWSITNFWKKNFNDRPDFDSDRRRY; synthetic novel tartgeting peptide IT-79) | S. pneumoniae
29 | 1T-80 (GGNLGPGFGVIIP; synthetic novel tartgeting peptide IT-80) | S. pneumoniae
30 | 1T-81 (AIATGLDIVDGKFDGYLWA; synthetic novel tartgeting peptide IT-81) | S. pneumoniae
31 | 1T-82 (FGVGVGIALFMAGYAIGKDLRKKFGKSC; synthetic novel tartgeting peptide IT-82) | S. pneumoniae
32 | 1T-83 (QKPRKNETFIGYIQRYDIDGNGYQSLPCPQN; synthetic novel tartgeting peptide IT-83) | S. pneumoniae
33 | 1T-84 (FRKKRYGLSILLWLNAFTNLVNSIHAFYMTLF; synthetic novel tartgeting peptide IT-84) | S. pneumoniae
34 | 1T-85 (VMASLTWRMRAASASLPTHSRTDA; synthetic novel tartgeting peptide IT-85) | A. naeslundii, F. nucleatum,; also recorded: P. gingivalis; also recorded: S. epidermidis,; also recorded: S. gordonii, S. mitis, S. mutans,; also recorded: S. oralis, S. salivarious,; also recorded: S. sanguinis
35 | 1T-86 (HRKNPVLGVGRRHRAHNVA; synthetic novel tartgeting peptide IT-86) | S. mitis, S. oralis, S. salivarious
36 | 1T-87 (EAVGQDLVDAHHP; synthetic novel tartgeting peptide IT-87) | S. mitis, S. mutans, S. oralis
37 | 1T-89 (HEDDKRRGMSVEVLGFEVVQHEE; synthetic novel tartgeting peptide IT-89) | S. mitis, S. mutans
38 | 1T-90 (RNVIGQVL; synthetic novel tartgeting peptide IT-90) | S. gordonii, S. mitis, S. mutans,; also recorded: S. oralis, S. sanguinis
39 | 1T-91 (TSVRPGAAGAAVPAGAAGAAGAGWRWP; synthetic novel tartgeting peptide IT-91) | S. mitis, S. mutans, S. oralis,; also recorded: S. sanguinis
40 | 1T-92 (GQDEGQRRAGVGEGQGVDG; synthetic novel tartgeting peptide IT-92) | S. mitis, S. mutans
41 | 1T-93 (AMRSVNQA; synthetic novel tartgeting peptide IT-93) | S. epidermidis, S. gordonii,; also recorded: S. mitis, S. mutans,; also recorded: S. oralis, S. sanguinis
